Experimental data taken from patent US6380165B1, “Immunological advanced glycation endproduct crosslink” (The Picower Institute for Medical Research, priority 1997, dated 2002).
Where a SMILES comes first, the peptide text is derived from it. The star is where a group is joined. Cbz = O=C(OCc1ccccc1)*

Legend:
[1] = tested on: polyclonal anti-AGE antibody “RU”; experiment: anti-AGE antibody-based competitive ELISA to measure AGE content (AGE-BSA as absorbed antigen); assay type: binding, rabbit; conditions: FIG. 1
Source text: For comparison purposes, the reactivity of FFI, CML, AFGP, pentosidine and cyclic pentosidine, and ligands with related epitope structure, such as N^α-Z-arg-lys, N^α-Z-arg-lys-AP, an imidazolium adduct, a pyrimidinium adduct, histidine, and lys-his, were studied. ELISA competition curves for the polyclonal anti-AGE antibody “RU” followed the methods described by Makita et al. (J. Biol. Chem. 267:1992, 1992). Assays employed glucose-derived, AGE-BSA as the absorbed antigen. FFI: 4-furanyl-2-furoyl-1H-imidazole (Ponger et al,. Proc. Natl. Acad Sci. U.S.A. 81:2684, 1984), CML: carboxy-methyllysine (Ahmed et al., J. Biol. Chem. 261:4889, 1986), AFGP: 1-alkyl-2-formyl-3,4-diglycosylpyrrole (Farmar et al., J. Org. Chem. 53:2346, 1988), PY: pyrraline (Njoroge et al., Carbohydrate Res. 167:211, 1987), P: pentosidine (Sell and Monnier, J. Biol. Chem. 264:21597, 1989), CP: cyclic pentosidine (CP) (Al-Abed et al., Bioorg. Med. Chem. Lett. 5:2929, 1995), AL: N^α-Z-arg-lys (AL), ALAP: N^α-Z-arg-lys-AP, H: histidine, LH: lys-his, PA: pyrimidinium adduct (Al-Abed et al., Bioorg. Med. Chem. Lett. 6:1577, 1996), and IA: imldazolium adduct (Brinkmann et al., J. Chem. Soc. Perkin Trans.
This example illustrates the discovery and isolation of the AGE of formula I. The dipeptide N^α-Z-arg-lys was selected as a target, because a close association of the arginine and lysine residues provides a significant proximity effect that promotes crosslink formation. Moreover, a synthetic strategy employing an arg-lys dipeptide was used successfully in the past to isolate a cyclic pentosidine in a high yield (Beisswenger et al., Diabetes 44:824, 1995). N^α-Z-arg-lys (13 mmoles) was incubated together with 10 equivalents of glucose in 0.2 M phosphate buffer (pH 7.4) for five weeks at 37° C. At least 25 distinct reaction products were identified upon fractionation of this mixture by reverse-phase HPLC. Each fraction was isolated, concentrated, and analyzed for its reactivity with anti-AGE antibody by ELISA (Makita et al., J. Biol Chem. 267:1992, 1992). Briefly, HPLC fractions and purified compounds were analyzed by an AGE-specific ELISA following methods described previously (Makita et al., J. Biol. Chem. 267:1992, 1992). This ELISA employed a polyclonal anti-AGE antibody raised by hyperimmunization against a heavily AGE-crosslinked preparation of ribonuclease. Total IgG was prepared by protein-G affinity chromatography and the ribonuclease backbone specificities removed by immunoabsorption. For assaying AGE immunoreactivity, 96-well round bottom microtitre plates (EIA/RIA plate, Costar, Cambridge, Mass.) first were coated with AGE-BSA (3 mg/ml, dissolved in 0.1 M sodium bicarbonate, pH 9.6) by incubation overnight at 4° C. After washing, the unbound sites were blocked with SuperBlock™ following the manufacturer's recommendations (Pierce, Rockford, Ill.). After washing, dilutions of test antigen, together with anti-AGE IgG, were added and the plates incubated at room temperature for 1 hr. The plates then were washed again and incubated with a secondary antibody (alkaline phosphatase-conjugated anti-rabbit IgG) at 37° C. for 1 hr. The unbound antibodies were removed by extensive washing and bound antibodies were detected by incubation with-nitrophenyl phosphate (pNPP) substrate for 30-60 min, and recording the optical density at 405 nm by an ELISA reader (EL309, Bio-Tek Instruments Inc., Burlington, Vt.). Results were expressed as B/B0, calculated as [experimental OD—background OD (i.e. no antibody)]/[total OD (i.e. no competitor)—background OD].

[2] = acid lability of the isolated crosslink; assay type: physicochemical
[3] = tested on: AGE formation; experiment: formation of the ALI crosslink from glucose and Nα-Z-arg-lys, inhibition of forming
Source text: This example illustrates a proposed mechanism of the AGE formation (FIG. 2). First, dehydration of the lysine-derived AP (which has been determined to form in 18% yield under these reaction conditions) gives an obligate, AP-dione reactive intermediate. Reversible addition of the guanidine moiety to the dicarbonyl yields the 2-amino-4,5-dihydroxyimidazole adduct, which then undergoes dehydration to deliver the stable cyclic ALI.

Row | Compound | crossreactivity / reactivity with the RU anti-AGE antibody [1] | also measured
1 | 1-alkyl-2-formyl-3,4-diglycosylpyrrole [AFGP] | no detectable crossreactivity | 
2 | 4-furanyl-2-furoyl-1H-imidazole [FFI] | no detectable crossreactivity | 
3 | N=C(N)NCCC[C@H](NC(=O)OCc1ccccc1)C(=O)N[C@@H](CCCCN)C(=O)O [AL, N^α-Z-arg-lys] (Cbz-Arg-Lys-OH) | no detectable crossreactivity | 
4 | O=C(NC1CCCNC2=NC(=CNCCCCC(C(=O)O)NC1=O)C(CC(O)CO)=N2)OCc1ccccc1 (stereo not drawn) [ALI, Arg-Lys-Imidazole] |  | acid stability of the crosslink [2]: acid-labile
5 | N[C@@H](Cc1c[nH]cn1)C(=O)O [H, histidine] | no detectable crossreactivity | 
6 | NCCCC[C@H](N)C(=O)N[C@@H](Cc1cnc[nH]1)C(=O)O [LH, lys-his] | no detectable crossreactivity | 
7 | N[C@@H](CCCCn1c(C=O)ccc1CO)C(=O)O [PY, pyrraline] | no detectable crossreactivity | 
8 | N=C(N)NN [aminoguanidine] |  | inhibition of crosslink (ALI) formation [3]: inhibited from forming
9 | N^α-Z-arg-lys-AP [ALAP] | no detectable crossreactivity | 
10 | cyclic pentosidine [CP] | no detectable crossreactivity | 
11 | pentosidine | no detectable crossreactivity | 
